Test results published in article PMC12040169 (PLOS Biology, 2025).

assay: in vitro; conditions: human, hela cells, % viability

Compound	viability at 28.5 h, 10 µM [%]
CC(C)C(=O)N[C@H]1CC[C@]2(CC1)CNC(=O)c1ccccc1O2 [CBK281675]	103
CC1CCCN(CC(C)(C)NC(=O)c2cc(C3CC3)on2)C1 (stereo not shown) [CBK281677]	94.6
Cc1nonc1CNC(=O)C1CC2C=CC1C21CC1 (stereo not shown) [CBK281678]	91.4
CCN1C(=O)c2ccccc2C(=O)[C@@]2(C)CN(C(=O)C(C)C)C[C@@H]12 [CBK281680]	91.8
CCC(=O)N[C@H]1CC[C@]2(CC1)CNC(=O)c1ccccc1O2 [CBK281681]	106
CC(=O)N(C)[C@H]1CC[C@]2(CC1)CNC(=O)c1ccccc1O2 [CBK281682]	101
CCC(=O)N(C)[C@H]1CC[C@]2(CC1)CNC(=O)c1ccccc1O2 [CBK281683]	87.5
CN1C(=O)c2ccccc2C(=O)[C@@]2(C)CN(C(=O)c3ccccc3)C[C@@H]12 [CBK281685]	93.2
Cc1cc2c(cc1NC(=O)[C@@H]1C[C@@H]3C=C[C@H]1C3)n(C)c(=O)n2C [CBK281689]	106
CCCC(=O)N(C)C1CCC2(CC1)CNC(=O)c1cc(C)ccc1O2 (stereo not shown) [CBK281694]	88.3
CC(C)(C)NC(=O)Cn1cncc1-c1cnn(-c2ccccc2)c1 [CBK281697]	106
CN1CCCc2cc(-c3cncn3CC(=O)NC(C)(C)C)ccc21 [CBK281700]	95
CC(C)(C)NC(=O)Cn1cncc1-c1cnn(C2CCCCC2)c1 [CBK281701]	93.5
CC(Oc1ccc(F)cc1)C(=O)N(C)CC1(C)COC1 (stereo not shown) [CBK281702]	89.7
Cc1cc(CN(C)Cc2cnn(-c3ccc(F)cc3)c2)n[nH]1 [CBK281706]	97.1
CCC1C(=O)NCCN1C(=O)c1ccc2c(c1)ncn2C (stereo not shown) [CBK281709]	82.4
Cc1cc(CN(C)Cc2cn(C)c3cc(F)ccc23)n[nH]1 [CBK281710]	89.6
Cc1cc(C)c2cc(C(=O)N(C)CC3(C)COC3)[nH]c2c1 [CBK281711]	87
CC(NC(=O)c1cc(C(F)(F)F)[nH]n1)c1ccccn1 (stereo not shown) [CBK281712]	84.8
Cc1cc(C)n(C(C)C(=O)NCC2(N(C)C)CCCC2)n1 (stereo not shown) [CBK281713]	107
Cc1cccn2cc(C(=O)NC(C)CN3CCCC3)nc12 (stereo not shown) [CBK281714]	99.6
Cc1ccc(-c2cc(C(=O)N(C)CC3(C)COC3)[nH]n2)cc1 [CBK281717]	90.9
CN(CC1(C)COC1)C(=O)c1ccc2c(c1)ncn2C1CC1 [CBK281718]	86.8
Cc1ccc(-n2cc(CN(C)CC3(C)COC3)cn2)cc1 [CBK281720]	93

Compound	viability at 28.5 h, 10 µM [%]
CN(CC1(C)COC1)C(=O)C1CC(=O)N(C(C)(C)C)C1 (stereo not shown) [CBK281724]	112
O=C(Cn1cccn1)NC(CN1CCCCC1)c1ccccc1 (stereo not shown) [CBK281726]	104
Cc1ccc(-c2cnc(NC(=O)Cn3cccn3)n2C)cc1C [CBK281727]	102
CCC1C(=O)NCCN1C(=O)Cc1cccc2cccnc12 (stereo not shown) [CBK281728]	104
Cc1nc2ccccn2c1CN1CCC(N2CCCC2)CC1 [CBK281730]	108
Cc1nn(C)cc1C(C)NC(=O)c1ccc2c(c1)ncn2C (stereo not shown) [CBK281732]	103
Cc1cc(C2CCCCCN2C(=O)c2cc(C(C)C)on2)on1 (stereo not shown) [CBK281733]	79.7
Cc1cccn2cc(C(=O)N(C)CCn3ccnc3C)nc12 [CBK281735]	91.7
CC1CCN(CC(C)(C)n2cncc2-c2cnn(C)c2)CC1 [CBK281738]	107
Cc1nn(C)cc1-c1cncn1CC(C)Oc1ccccc1Cl (stereo not shown) [CBK281739]	83.8
CCn1cc(-c2cncn2C(CCN(C)C)c2ccccc2)cn1 (stereo not shown) [CBK281741]	79.2
CCc1nccn1C(C)C(=O)Nc1ccc2ncn(C)c2c1 (stereo not shown) [CBK281745]	107
CN1CCCCC1CC(=O)Nc1ccc2ncn(C)c2c1 (stereo not shown) [CBK281747]	87.6
CC1(CNC(=O)c2cc(C3CC3)nc3ccccc23)COC1 [CBK281752]	90
CC1(CNC(=O)C2CC(=O)N(C3CCCCC3)C2)COC1 (stereo not shown) [CBK281754]	97
CC(CC(=O)NCC1(C)COC1)n1cnc2ccccc21 (stereo not shown) [CBK281755]	78.1
CC1(CNC(=O)c2cc(-c3ccc(F)cc3)no2)COC1 [CBK281757]	84.2
Cc1cc(C)n(C(C(=O)NCC2(C)COC2)C(C)C)n1 (stereo not shown) [CBK281758]	85.9
CCn1cc(-c2cncn2CCCOc2cccc(C)c2)cn1 [CBK281760]	90.5
CCn1nc(C)c(-c2cncn2CCCOc2ccccc2C)c1C [CBK281761]	99.7
Cc1cccc(OCCCn2cncc2-c2cnn(C)c2)c1 [CBK281763]	82
CCn1nc(C)c(-c2cncn2CCn2nc(C)c(Cl)c2C)c1C [CBK281768]	90.4
CCn1nc(C)c(-c2cncn2CCCN2CCCCC2)c1C [CBK281769]	97.6
Cc1cc(C)n(CCCn2cncc2-c2cnn(C)c2)n1 [CBK281771]	84.9

Compound	viability at 28.5 h, 10 µM [%]
Cc1cc(C)n(CCCn2cncc2-c2ccc3c(c2)CC(C)N3C)n1 (stereo not shown) [CBK281773]	62
Cc1nn(C)c(C)c1CCNC(=O)CC1CCCCN1C (stereo not shown) [CBK281774]	97.6
CC(C)(CO)CCCn1cncc1-c1cnn(C2CCCCC2)c1 [CBK281779]	86.7
Cc1nn(C)cc1-c1cncn1CC(C)N1CCCCC1 (stereo not shown) [CBK281781]	92.1
Cc1nn(CCn2cncc2-c2cnn(C)c2)c(C)c1C [CBK281783]	83.7
Cn1cc(-c2cncn2CCCOc2ccc(Cl)cc2)cn1 [CBK281784]	95.2
Cc1nn(C)cc1-c1cncn1CC(C)N1CCC(C)CC1 (stereo not shown) [CBK281789]	91.4
Cc1ccc2[nH]c(-c3cncn3C(C)CN3CCOCC3)c(C)c2c1 (stereo not shown) [CBK281794]	103
Cc1c(-c2cncn2C(C)CN2CCOCC2)[nH]c2ccccc12 (stereo not shown) [CBK281795]	99.9
CCCn1nc(C)c(-c2cncn2CC(C)N2CCCCC2)c1C (stereo not shown) [CBK281802]	95.7
CC(=O)NC1(c2ccccc2)CCN(Cc2ccnn2C)CC1 [CBK281805]	87.8
Cc1cc(C)n(C2CCN(Cc3cn(C)c4cc(F)ccc34)CC2)n1 [CBK281806]	112
CCn1nc(C)c(-c2cncn2CCCC(C)(C)CO)c1C [CBK281807]	84.4
Cc1nccn1CCCn1cncc1-c1ccc2c(c1)CC(C)(C)O2 [CBK281809]	106
Cc1nccn1CCCn1cncc1-c1ccc2c(c1)CCC(C)N2C (stereo not shown) [CBK281811]	91
CC(C)c1nccn1CCCn1cncc1-c1cnn(C)c1 [CBK281812]	104
COc1ccc(CCn2cncc2-c2cn(C)nc2C)cc1C [CBK281814]	102
CCN1c2ccc(-c3cncn3CC(=O)NC(C)(C)C)cc2CC1C (stereo not shown) [CBK281815]	95.7
Cc1nccn1CCCn1cncc1-c1cnn(C2CCCCC2)c1 [CBK281816]	105
COc1cccc2cc(-c3cncn3CCCC(C)(C)CO)oc12 [CBK281817]	112
Cc1nccn1CCCn1cncc1-c1ccc2c(c1)CC(C)N2C (stereo not shown) [CBK281818]	87.8
CC(NC(=O)c1cc2ccc(N(C)C)cc2[nH]1)c1ccccn1 (stereo not shown) [CBK281821]	80.6
CC(NC(=O)CCc1nc2ccccc2n1C)c1ccccn1 (stereo not shown) [CBK281823]	89
CN(C)c1ccc(CCNC(=O)c2c3c(nn2C)CCCC3)cc1 [CBK281824]	96.4

Compound	viability at 28.5 h, 10 µM [%]
Cc1cc(C(=O)NC(C)c2ccccn2)c2ccccc2n1 (stereo not shown) [CBK281826]	96.9
CN(CCN1CCCCC1)C(=O)c1cc2ccc(N(C)C)cc2[nH]1 [CBK281830]	107
Cc1ccc(C2(C(=O)N(C)CCN3CCCCC3)CCOCC2)cc1 [CBK281833]	107
CCn1c(C)nc2cc(NC(=O)Cc3c(C)noc3C)ccc21 [CBK281834]	100
CN(CCN1CCCCC1)C(=O)c1cc2c([nH]1)CCCC2 [CBK281836]	86.5
Cc1nc2cc(C(=O)N3CCc4[nH]c5ccccc5c4C3)ccc2n1C [CBK281842]	60.6
O=C(Cn1cnc2ccccc21)N1CCC(c2ccccc2)C1 (stereo not shown) [CBK281845]	84.5
CN(C)Cc1ccc(C(=O)N2CCc3[nH]c4ccccc4c3C2)cc1 [CBK281847]	82.9
Cc1noc(C)c1CC(=O)N1CCc2[nH]c3ccccc3c2C1 [CBK281848]	97.8
O=C(c1cn2ccccc2n1)N1CCC(c2ccccc2)C1 (stereo not shown) [CBK281850]	104
O=C(c1cc(-c2ccccn2)n[nH]1)N1CCC(c2ccccc2)C1 (stereo not shown) [CBK281852]	91.9
O=C(c1cnn(-c2ccccc2)c1)N1CCc2[nH]c3ccccc3c2C1 [CBK281853]	74.1
Cc1nc2cc(C(=O)N(C)CCN3CCCCC3)ccc2n1C [CBK281854]	78.3
CC1(C)C(=O)NCCN1C(=O)Cn1cnc2ccccc21 [CBK281856]	89.3
CCn1c(C)nc2cc(NC(=O)CC3CCCCO3)ccc21 (stereo not shown) [CBK281859]	98.2
O=C(Cn1cnc2ccccc21)N1CCc2[nH]c3ccccc3c2C1 [CBK281860]	74.7
O=C(CCn1cccn1)Nc1ccc(OC2CCCC2)cc1 [CBK281861]	87.1
Cc1nc2cc(C(=O)NCC(C)(C)N3CCCCC3)ccc2n1C [CBK281862]	86.4
Cc1nc(C(F)(F)F)ccc1C(=O)NCC(C)(C)N1CCCCC1 [CBK281864]	98
CCN(C(=O)c1n[nH]c2c1CCC2)C1CCN(C)CC1 [CBK281870]	102
Cc1nc(C)c(C(=O)N2CCc3[nH]c4ccccc4c3C2)o1 [CBK281873]	110
O=C(c1cnn2cccnc12)N1CCc2[nH]c3ccccc3c2C1 [CBK281874]	93
